Columns and labels:
[1] = tested on: S-phosphate, fractional phosphate elimination, FGF23; assay: DBA/2 mice: S-phosphate, fractional phosphate elimination, FGF23; assay type: in vivo, mouse; conditions: for FGF23 / fractional phosphate elimination: DBA/2 mice
Description: For this purpose, 5/6 nephrectomized DBA/2 mice were used as model for vascular calcification.

[2] = given in combination with the phosphate binder sevelamer; cited from earlier work
[3] = molecular target: GPR109A receptor (Homo sapiens, UniProt Q8TDS4); conditions: cited from earlier work
[4] = tested on: serum phosphate; assay: Phase II dose finding study (DONATO), patients on hemodialysis: serum phosphate; assay type: in vivo, human; conditions: for a 0.22603 mmol/l phosphate level reduction against compare group; dose response of modified release capsules, 4 weeks
Description: Secondary outcome criteria included a comparison of the two different […] of nicotinamide by means of several measures of safety and efficacy.

Chain of GPR109A receptor (Q8TDS4 whole entry): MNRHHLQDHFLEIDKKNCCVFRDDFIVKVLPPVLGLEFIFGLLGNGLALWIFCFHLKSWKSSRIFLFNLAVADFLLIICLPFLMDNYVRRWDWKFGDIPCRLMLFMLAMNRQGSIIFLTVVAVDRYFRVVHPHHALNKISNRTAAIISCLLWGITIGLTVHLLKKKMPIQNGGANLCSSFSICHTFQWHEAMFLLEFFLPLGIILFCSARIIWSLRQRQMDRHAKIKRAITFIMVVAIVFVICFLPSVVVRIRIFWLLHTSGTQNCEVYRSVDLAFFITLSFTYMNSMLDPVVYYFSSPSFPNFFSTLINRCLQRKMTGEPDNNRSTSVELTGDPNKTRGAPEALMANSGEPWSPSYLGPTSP

| SMILES | FGF23 [1] | fractional phosphate elimination [1] | treatment of hyperphosphatemia [2] | binding to or effect on the GPR109A receptor [3] | S-phosphate ([1]; only in healthy DBA/2 mice with high phosphate diet, NA in the drinking water) | minimum effective dose [4] |
| --- | --- | --- | --- | --- | --- | --- |
| O=C([O-])[O-].[Mg+2] [magnesium carbonate] | reduction | reduction | – | – | – | – |
| NC(=O)c1cccnc1 [nicotinamide] | reduction | reduction | ineffective | does not bind or otherwise affect | decrease | 450 mg |

Reference: patent US20180318280A1 (Salmon Pharma GmbH, priority 2017, published 2018)
